Measured values reported in article PMC10384010, “Chromatographic Data in Statistical Analysis of BBB Permeability Indices” (Membranes, 2023).

Experiments:
[1] = Normal-phase TLC on silica gel 60 F254 (Rf); format: physicochemical; settings: water:methanol:acetonitrile 60:20:20, ammonium acetate pH 7.4
Experimental: (§1) The purity of the isolated substances was checked by TLC chromatography and densitometric scanning.
(§2) APIs were subjected to chromatographic in column (HPLC) and thin layer (TLC) formats. TLC chromatography was carried out on 20 cm × 20 cm glass plates by Merck, covered with silica gel and the addition of a fluorescent indicator. Merck TLC silica gel 60 F254 was used for the normal phase (NP). In the reverse phase (RP), RP-2 silanized plates were used (Merck TLC Silica gel 60 RP-2 F254, silanized). The mobile phase was buffered with ammonium acetate to pH 7.4 (LACH-NER, ammonium acetate).
(§3) Plates, after developing the chromatograms, were scanned using a densitometer (Desaga CD 60) with an analytical wavelength selected individually for drugs. The values of Rf (molecular descriptors: NP, RP) were determined.

[2] = Reversed-phase TLC on RP-2 silanized plates (Rf); format: physicochemical; settings: silica gel 60 RP-2 F254 silanized; water:methanol:acetonitrile 60:20:20, ammonium acetate pH 7.4
Experimental: as §1, §2, §3

[3] = HPLC on IAM (immobilized artificial membrane) column, retention factor; format: physicochemical; settings: IAM.PC.DD.2 column; for k(IAM) retention factor: 10 mM phosphate buffer pH 7.4:acetonitrile 80:20; for logkIAM: logarithm of retention factor, phosphate buffer pH 7.4:acetonitrile 80:20
Experimental: Chromatographic data also came from an experiment with a HPLC IAM (immobilized artificial membrane) column (Regis Technologies Inc.: IAM.PC.DD.2, 10 µm; 4.6 mm × 10 mm). The column contains a standard membrane consisting of a phospholipid bilayer. Organic solvents (acetonitrile and methanol) and water (J.T. Baker HPLC) were used in HPLC. Sigma phosphate buffered saline tablets were used to prepare the phosphate buffer. The mobile phase was a mixture of 10 mM phosphate buffer at pH 7.4 and acetonitrile in the ratio of 80:20 (v/v) [35]. The mobile phase flow was set at 0.5 mL/min; detection was carried out with a UV–Vis detector. The obtained values of the retention factor (k IAM) were transformed into a logarithmic form and entered into the statistical analysis (descriptor: log k IAM).

[4] = entering the CNS / not entering the CNS; ref Drugbank [36]; cited from earlier work
[5] = plasma protein binding, given as fraction; ref Drugbank; cited from earlier work
[6] = cited from earlier work

Structure (SMILES) | NP (Rf from NP TLC plate) [1] | RP (Rf from RP-2 TLC plate) [2] | k(IAM) retention factor [3] | logkIAM [3] | CNS+/- [4] | PB (protein binding) [5] | Kp,uu,brain (unbound brain-to-plasma drug partition coefficient) [6]
COc1ccc(CCN2CCC(Nc3nc4ccccc4n3Cc3ccc(F)cc3)CC2)cc1 [astemizol] | 0.62 | 0.65 | 26.27 | 1.42 | 1 | 0.967 | –
CC[C@H]1OC(=O)[C@H](C)[C@@H](O[C@H]2C[C@@](C)(OC)[C@@H](O)[C@H](C)O2)[C@H](C)[C@@H](O[C@@H]2O[C@H](C)C[C@H](N(C)C)[C@H]2O)[C@](C)(O)C[C@@H](C)CN(C)[C@H](C)[C@@H](O)[C@]1(C)O [azithromycin] | 0.63 | 0.24 | 0.06 | -1.20 | 0 | 0.29 | –
CC(C)NCC(O)COc1ccc(COCCOC(C)C)cc1 (stereo not shown) [bisoprolol] | 0.67 | 0.57 | 6.74 | 0.83 | 0 | 0.3 | –
O=C1CN=C(c2ccccn2)c2cc(Br)ccc2N1 [bromazepam] | 0.87 | 0.83 | 2.21 | 0.34 | 1 | 0.7 | –
CO/N=C(\C(=O)N[C@@H]1C(=O)N2C(C(=O)O)=C(COC(N)=O)CS[C@H]12)c1ccco1 [cefuroxime] | 0.97 | 0.88 | 1.69 | 0.23 | 0 | 0.5 | –
Cc1ccc(-c2cc(C(F)(F)F)nn2-c2ccc(S(N)(=O)=O)cc2)cc1 [celecoxib] | 0.98 | 0.75 | 50.01 | 1.70 | 1 | 0.97 | –
CN(C)CCCN1c2ccccc2Sc2ccc(Cl)cc21 [chlorpromazine] | 0.43 | 0.49 | 58.85 | 1.77 | – | 0.9 | 3.41
CN/C(=N/CCSCc1nc[nH]c1C)NC#N [cimetidine] | 0.64 | 0.88 | 0.26 | -0.58 | 0 | 0.17 | –
COc1cc(N)c(Cl)cc1C(=O)NC1CCN(CCCOc2ccc(F)cc2)CC1OC (stereo not shown) [cisapride] | 0.64 | 0.65 | 57.99 | 1.76 | 1 | 0.975 | –
CN1C(=O)CC(=O)N(c2ccccc2)c2cc(Cl)ccc21 [clobazam] | 0.95 | 0.79 | 2.58 | 0.41 | 1 | 0.85 | –
Clc1cccc(Cl)c1N=C1NCCN1 [clonidine] | 0.49 | 0.73 | 2.83 | 0.45 | 1 | 0.3 | –
CN1CCN(C2=Nc3cc(Cl)ccc3Nc3ccccc32)CC1 [clozapine] | 0.45 | – | 50.94 | 1.71 | – | 0.99 | 3.83
CN1CCC(=C2c3ccccc3C=Cc3ccccc32)CC1 [cyproheptadine] | 0.45 | 0.45 | 23.79 | 1.38 | 1 | 0.975 | –
C[C@H]1c2cccc(O)c2C(=O)C2=C(O)[C@]3(O)C(=O)C(C(N)=O)=C(O)[C@@H](N(C)C)[C@@H]3[C@@H](O)[C@@H]21 [doxycycline] | 0.06 | 0.08 | 1.76 | 0.24 | 0 | 0.9 | –
CCOC(=O)[C@H](CCc1ccccc1)N[C@@H](C)C(=O)N1CCC[C@H]1C(=O)O [enalapril] | 0.33 | 0.6 | 0.05 | -1.29 | 0 | 0.55 | –
COC(=O)[C@@H]1CC2=CC(=O)CC[C@]2(C)[C@@]23O[C@@H]2C[C@@]2(C)[C@@H](CC[C@@]24CCC(=O)O4)[C@H]13 [eplerenone] | 0.94 | 0.84 | 1.54 | 0.19 | 1 | 0.5 | –
CNCCC(Oc1ccc(C(F)(F)F)cc1)c1ccccc1 (stereo not shown) [fluoxetine] | 0.68 | 0.54 | 66.64 | 1.82 | – | 0.945 | 5.23

Structure (SMILES) | NP (Rf from NP TLC plate) [1] | RP (Rf from RP-2 TLC plate) [2] | k(IAM) retention factor [3] | logkIAM [3] | CNS+/- [4] | PB (protein binding) [5] | Kp,uu,brain (unbound brain-to-plasma drug partition coefficient) [6]
OCCN1CCN(CCC=C2c3ccccc3Sc3ccc(C(F)(F)F)cc32)CC1 [flupenthixol] | 0.51 | 0.66 | 51.21 | 1.71 | 1 | 0.95 | –
NCC1(CC(=O)O)CCCCC1 [gabapentin] | – | – | – | – | – | 0.03 | 0.44
Cc1ccc(S(=O)(=O)NC(=O)NN2CC3CCCC3C2)cc1 (stereo not shown) [gliclazide] | 0.95 | 0.83 | 0.28 | -0.55 | 1 | 0.94 | –
O=C(CCCN1CCC(O)(c2ccc(Cl)cc2)CC1)c1ccc(F)cc1 [haloperidol] | 0.66 | 0.61 | 23.74 | 1.38 | – | 0.92 | 1.77
CN1CCC(=C2c3ccccc3CC(=O)c3sccc32)CC1 [ketotifen] | 0.34 | 0.75 | 22.04 | 1.34 | 1 | 0.75 | –
Nc1nnc(-c2cccc(Cl)c2Cl)c(N)n1 [lamotrigine] | 0.89 | 0.87 | 0.71 | -0.15 | – | – | 4.86
C[C@](N)(Cc1ccc(O)c(O)c1)C(=O)O [methyldopa] | 0.38 | 0.85 | 0.10 | -1.02 | 0 | 0.2 | –
COc1ccnc(C[S+]([O-])c2nc3ccc(OC(F)F)cc3[nH]2)c1OC (stereo not shown) [pantoprazole] | 0.93 | 0.85 | 2.19 | 0.34 | 0 | 0.98 | –
Fc1ccc([C@@H]2CCNC[C@H]2COc2ccc3c(c2)OCO3)cc1 [paroxetine] | 0.55 | 0.6 | 115.77 | 2.06 | 1 | 0.94 | –
CCC[C@H](N[C@@H](C)C(=O)N1[C@H](C(=O)O)C[C@@H]2CCCC[C@@H]21)C(=O)OCC [perindopril] | 0.47 | 0.57 | 0.18 | -0.76 | 0 | 0.15 | –
CN1C(C(=O)Nc2ccccn2)=C(O)c2ccccc2S1(=O)=O [piroxicam] | 0.98 | 0.58 | 0.16 | -0.79 | 0 | 0.99 | –
CN(C)CCCN1c2ccccc2Sc2ccccc21 [promazine] | 0.39 | 0.51 | 0.10 | -1.02 | 1 | 0.94 | –
CC(CN1c2ccccc2Sc2ccccc21)N(C)C (stereo not shown) [promethazine] | 0.43 | 0.49 | 14.96 | 1.17 | 1 | 0.93 | –
CCOC(=O)[C@H](CCc1ccccc1)N[C@@H](C)C(=O)N1Cc2ccccc2C[C@H]1C(=O)O [quinapril] | 0.44 | 0.57 | 1.22 | 0.09 | 0 | 0.97 | –
CCCC(CCC)C(=O)O [valproic acid] | 0.69 | 0.04 | 0.08 | -1.09 | 1 | 0.85 | –
COc1ccc(C(CN(C)C)C2(O)CCCCC2)cc1 (stereo not shown) [venlafaxine] | – | – | 8.25 | 0.92 | – | 0.27 | 1.91
